{"source": "patent US20250206761A1", "about": "“HALOINDOLE MACROCYCLIC COMPOUNDS FOR THE TREATMENT OF CANCER” (Hoffmann-La Roche Inc., priority 2022, published 2025)", "key": {"[1]": {"target": "KRAS G12C-BRAF complex (Homo sapiens (Human), UniProt P01116+P62937, G12C)", "sequence (P01116-2 other isoform, or with tags, fused parts or gaps G12C)": "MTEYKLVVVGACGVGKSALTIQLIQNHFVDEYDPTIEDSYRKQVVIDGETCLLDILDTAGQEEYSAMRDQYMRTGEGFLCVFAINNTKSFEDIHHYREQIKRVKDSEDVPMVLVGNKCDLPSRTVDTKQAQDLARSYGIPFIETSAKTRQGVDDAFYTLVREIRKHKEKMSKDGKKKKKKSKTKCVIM", "sequence (P62937 whole entry)": "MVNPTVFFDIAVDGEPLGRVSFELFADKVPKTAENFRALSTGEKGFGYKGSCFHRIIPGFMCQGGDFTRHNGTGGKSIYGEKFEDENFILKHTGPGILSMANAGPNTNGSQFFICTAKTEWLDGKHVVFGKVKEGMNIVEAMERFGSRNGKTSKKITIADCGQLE", "test": "KRAS-BRAF with CYPA (500 nM) interaction assay (TR-FRET), G12C", "type": "biochemical"}, "[2]": {"test": "GSH reaction rates (inherent GSH reactivity)", "type": "in vitro ADME", "set-up": "half-life: dose or concentration left out as unconfirmed", "protocol": "For inherent GSH reactivity determination, compounds […] were incubated at 37° C. with and without 5 mM GSH for 0, 0.5, 1, 2, 4 and 6 h in 100 mM potassium phosphate buffer at pH 7.4. At the end of the designated time points, samples were quenched with acetonitrile containing 10 mM N-ethylmaleimide and an internal standard. Quenched samples were centrifuged, and supernatants were analyzed by LC-MS/MS for compound quantification."}, "[3]": {"target": "KRAS G12D binding to BRAF (Homo sapiens (Human), UniProt P01116+P62937, G12D)", "sequence (P01116-2 other isoform, or with tags, fused parts or gaps G12D)": "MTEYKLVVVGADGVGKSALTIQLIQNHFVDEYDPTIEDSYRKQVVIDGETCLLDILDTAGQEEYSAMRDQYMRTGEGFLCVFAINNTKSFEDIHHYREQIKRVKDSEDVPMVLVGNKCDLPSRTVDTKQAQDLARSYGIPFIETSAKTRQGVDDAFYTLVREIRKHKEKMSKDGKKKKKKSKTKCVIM", "sequence (P62937 whole entry)": "as the sequence (P62937 whole entry) above", "test": "KRAS-BRAF with CYPA (500 nM) interaction assay (TR-FRET), G12D", "type": "biochemical"}, "[4]": {"test_system": "phosphorylation of ERK, KRAS G12C in NCJ-H358 cells", "test": "pERK inhibition assay, KRAS G12C", "type": "cell-based, human", "conditions": "Homo sapiens, 4 hours", "in_short": "(§1)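 4 h compound treatment (0.5% DMSO final) of overnight-plated cells; formaldehyde fix, cold MeOH permeabilization, BSA block. Anti-pERK primary overnight at 4 °C, HRP anti-rabbit secondary, TMB readout at OD450. IC50 via 4-parameter sigmoidal model.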"}, "[5]": {"test_system": "phosphorylation of ERK, KRAS G12D in AGS cells", "test": "pERK inhibition assay, KRAS G12D", "type": "cell-based, human", "conditions": "Homo sapiens, 4 hours", "in_short": "as §1"}}, "data": [{"smiles": "CC(C)[C@@H](C(=O)N[C@H]1Cc2cc(O)cc(c2)-c2ccc3c(C(C)(C)C#N)cn(c3c2)CC(C)(C)COC(=O)[C@@H]2CCCN(N2)C1=O)N1CCCC2(CCN(C(=O)CCl)C2)C1=O", "note": "(some centres unmarked) [RM351, reference compound]", "values": [{"measurement": "IC50", "setting": "[1]", "result": "> 10000", "unit": "nM"}, {"measurement": "conjugation with GSH", "setting": "[2]", "result": "formed conjugation with GSH"}, {"measurement": "half-life", "setting": "[2]; buffer, pH 7.4", "result": 258, "unit": "min"}, {"measurement": "IC50", "setting": "[3]", "result": "> 10", "unit": "µM"}, {"measurement": "IC50", "setting": "[4]", "result": 356, "unit": "nM"}, {"measurement": "IC50", "setting": "[5]", "result": "> 10000", "unit": "nM"}]}, {"smiles": "CO[C@@H](C)c1ncc(N2CCN(C)CC2)cc1-c1c2c3cc(c(F)cc3n1CC(F)(F)F)-c1csc(n1)C[C@H](NC(=O)[C@H](C(C)C)N(C)C(=O)C1(F)CCN(C(=O)[C@H](F)Cl)CC1)C(=O)N1CCC[C@H](N1)C(=O)OCC(C)(C)C2", "note": "(atropisomer, axis not shown; (M)) [Example 10, 1-[(2R)-2-chloro-2-fluoro-acetyl]-4-fluoro-N-[(1S)-1-[[(7S,13S)-24-fluoro-(20M)-20-[2-[(1S)-1-methoxyethyl]-5-(4-methylpiperazin-1-yl)-3-pyridyl]-17,17-dimethyl-8,14-dioxo-21-(2,2,2-trifluoroethyl)-15-oxa-4-thia-9,21,27,28-tetrazapentacyclo[17.5.2.1^2,5.1^9,13.0^22,26]octacosa-1(25),2,5(28),19,22(26),23-hexaen-7-yl]carbamoyl]-2-methyl-propyl]-N-methyl-piperidine-4-carboxamide]", "values": [{"measurement": "IC50", "setting": "[1]", "result": 20, "unit": "nM"}, {"measurement": "IC50", "setting": "[3]", "result": 0.964, "unit": "µM"}, {"measurement": "IC50", "setting": "[4]", "result": "< 1", "unit": "nM"}, {"measurement": "IC50", "setting": "[5]", "result": 16, "unit": "nM"}]}, {"smiles": "CO[C@@H](C)c1ncc(N2CCN(C)CC2)cc1-c1c2c3cc(c(C)cc3n1CC(F)(F)F)-c1csc(n1)C[C@H](NC(=O)[C@H](C(C)C)N(C)C(=O)C1(F)CCN(C(=O)[C@H](F)Cl)CC1)C(=O)N1CCC[C@H](N1)C(=O)OCC(C)(C)C2", "note": "(atropisomer, axis not shown; (M)) [Example 9, 1-[(2R)-2-chloro-2-fluoro-acetyl]-4-fluoro-N-[(1S)-1-[[(7S,13S)-(20M)-20-[2-[(1S)-1-methoxyethyl]-5-(4-methylpiperazin-1-yl)-3-pyridyl]-17,17,24-trimethyl-8,14-dioxo-21-(2,2,2-trifluoroethyl)-15-oxa-4-thia-9,21,27,28-tetrazapentacyclo[17.5.2.1^2,5.1^9,13.0^22,26]octacosa-1(25),2,5(28),19,22(26),23-hexaen-7-yl]carbamoyl]-2-methyl-propyl]-N-methyl-piperidine-4-carboxamide]", "values": [{"measurement": "IC50", "setting": "[1]", "result": 176, "unit": "nM"}, {"measurement": "IC50", "setting": "[3]", "result": "> 10", "unit": "µM"}, {"measurement": "IC50", "setting": "[4]", "result": 3, "unit": "nM"}, {"measurement": "IC50", "setting": "[5]", "result": 23, "unit": "nM"}]}]}
